Measurements taken from patent US20060019933A1, “Process for preparing stabilized vitamin D” (priority 2004, published 2006).

Legend:
[1] = Chemical stability of neat, crystalline vitamin D3 at 40° C. and various humidities; format: physicochemical; conditions: one week
Method: Stability of neat, crystalline vitamin D3 was investigated at 40° C. and 5%, 20%, 50%, 75% relative humidity (% RH) over the course of one week. This experiment was used as a baseline for comparison of vitamin D3 stability after formulation as indicated above. A pronounced dependence of degradation rate upon relative humidity was observed, as depicted in FIG. 1. Under low humidity conditions, loss of active occurred at a rate of 0.58%/day and 0.76%/day at 5% RH and 20% RH, respectively.

[2] = Stability of amorphous vitamin D3 cast as a thin film; format: physicochemical
Excerpt: In an additional experiment, vitamin D3 was cast as a thin film by evaporating a solution of vitamin D in ethyl acetate and the stability of this amorphous form of vitamin D was also investigated. […] The results of this and the previous experiment highlight the inherently low stability of vitamin D and the impact of both humidity and physical form (crystalline vs. amorphous) on degradation rates.

vitamin D receptor = target: T1, vitamin D receptor (Homo sapiens, UniProt P11473); conditions: agonism at the vitamin D receptor without 1α-hydroxylation; cited from earlier work
T1 sequence (P11473 1-427): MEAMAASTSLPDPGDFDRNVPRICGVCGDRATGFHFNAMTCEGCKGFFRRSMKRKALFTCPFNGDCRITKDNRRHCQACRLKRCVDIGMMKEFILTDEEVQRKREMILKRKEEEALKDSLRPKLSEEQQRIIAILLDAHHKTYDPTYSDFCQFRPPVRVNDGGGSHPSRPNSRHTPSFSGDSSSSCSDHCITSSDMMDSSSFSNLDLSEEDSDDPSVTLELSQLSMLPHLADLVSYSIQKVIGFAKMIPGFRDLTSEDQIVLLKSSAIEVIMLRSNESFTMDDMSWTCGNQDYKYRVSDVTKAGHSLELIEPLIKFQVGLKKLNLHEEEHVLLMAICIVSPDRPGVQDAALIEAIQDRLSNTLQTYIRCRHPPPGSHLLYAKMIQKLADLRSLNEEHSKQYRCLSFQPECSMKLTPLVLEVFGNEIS

Structure (SMILES) | rate of loss of active ([1]; 5% RH) | rate of loss of active ([1]; 20% RH) | degradation rate ([1]; 50% RH) | degradation rate ([1]; 75% RH) | degradation after 3 days ([2]; 25° C.) | degradation after 3 days ([2]; 40° C.) | degradation after 3 days ([2]; 40° C./75% RH) | intrinsic activity, fold lower than that of 1α,25-dihydroxy-cholecalciferol (vitamin D receptor)
C=C1CC[C@H](O)C/C1=C/C=C1\CCC[C@]2(C)[C@@H]([C@H](C)CCCC(C)C)CC[C@@H]12 [vitamin D3, cholecalciferol] | 0.58 %/day | 0.76 %/day | 5.5 %/day | 10.8 %/day | Essentially complete degradation | Essentially complete degradation | Essentially complete degradation | –
C=C1CC[C@H](O)C/C1=C/C=C1\CCC[C@]2(C)[C@@H]([C@H](C)CCCC(C)(C)O)CC[C@@H]12 [25-hydroxy-cholecalciferol] | – | – | – | – | – | – | – | about 100 fold
